Columns and labels:
Format in all cases: cell-based, human
[1] = test system: PC-3 cells; test: Cell growth of PC-3 cells (cell counting)
Protocol: The PC-3 and DU-145 cells (the cell number of 1×10^5/in 1 ml of a culture fluid per hole using a 24-hole plate) were cultured in a DMEM culture fluid (containing 10% of FBS, 1% of P/S, and 1% of fungizone) containing the DHMBA (1 and 10 μM) under 5% of CO2, at 37° C., for one, two, three, four, and six days. […] After the culture, 0.1 ml of 0.05% trypsin-EDTA solution obtained by dissolving the cells adhering to the bottom surface of the culture dish in PBS (Thermo Fisher Scientific, Waltham, MA, USA) not containing Ca^2+/Mg^2+ was added, incubation was performed at 37° C. for two minutes to release the adhering cells, and 0.9 ml of the DMEM culture fluid containing 10% of FBS and 1% of P/S was added to stop the reaction. The cell number in the cell suspension was counted by the method described in the item of “Measurement of Cell Number.”
After the culture of the cells, 0.1 ml of 0.05% trypsin-EDTA solution obtained by dissolving the cells adhering to the bottom surface of the culture dish in PBS (Thermo Fisher Scientific, Waltham, MA, USA) not containing Ca^2+/Mg^2+ was added, incubation was performed at 37° C. for two minutes to release the adhering cells, and 0.9 ml of the DMEM culture fluid containing 10% of FBS and 1% of P/S was added to stop the reaction. The visible cells were counted by the Olympus MTV-3 microscope using a hemocytometer (Sigma-Aldrich).
FIG. 1(C) is a diagram in which the PC-3 cells (1×10^5 cells/per well of a 24-well plate) were cultured under 5% of CO2, at 37° C., for one to six days in a DMEM culture fluid (containing 10% of FBS, 1% of P/S, and 1% of fungizone) containing the DHMBA (10 μM).
In FIGS. 1(D) and 1(E), the PC-3 cells (1×10^5 cells/per well of a 24-well plate) were cultured under 5% of CO2, at 37° C., for three (FIG. 1D) and six (FIG. 1E) days in a DMEM culture fluid (containing 10% of FBS, 1% of P/S, and 1% of fungizone) containing the DHMBA (0.01, 0.1, 1, 10, 100, and 1000 μM). After the culture, the cells adhered to the bottom surface of the dish were removed and counted. […] 1-way ANOVA, Tukey-Kramer post-test.
FIGS. 3(A) and 3(B) are diagrams in which the PC-3 cells (1×10^5 cells/ml/per well of a 24-well plate) were cultured under 5% of CO2, at 37° C., for three days in a DMEM culture fluid (containing 10% of FBS, 1% of P/S, and 1% of fungizone) containing the DHMBA (10 μM) containing cell cycle inhibitors, roscovitine (10 and 100 nM), butyrate (10 and 100 μM), and sulforaphane (1 and 10 nM).
After the culture, the cells adhered to the dish were removed and counted. […] 1-way ANOVA, Tukey-Kramer post-test.
In the drawing, the PC-3 cells (1×10^5/in 1 ml of a culture fluid per hole using a 24-hole plate) were cultured under 5% of CO2, at 37° C., for three days in a DMEM culture fluid (containing 10% of FBS, 1% of P/S, and 1% of fungizone) in the presence of the DHMBA (10 μM) and an aryl hydrocarbon receptor inhibitor CH223191 (1, 10, or 25 μM) to examine the action on cell growth.

[2] = test system: DU-145 cells; test: Intracellular active oxygen (ROS) production, H2DCFDA, DU-145 cells; conditions: DHMBA 1, 10, 100, and 1000 μM, 24 hours
Protocol: The intracellular active oxygen (reactive oxygen species: ROS) was measured using an ROS measurement kit (MAK144-1 Kit, Sigma-Aldrich) using pro-fluorescent substrate H2DCFDA. The PC-3 and DU-145 cells (the cell number of 2.5×10^4/per well, in 0.1 ml of a culture fluid per hole using a 96-hole plate) were cultured in a DMEM culture fluid (containing 10% of FBS, 1% of P/S, and 1% of fungizone) containing the DHMBA (0.1, 1, 10, 100, or 1000 μM) under 5% of CO2, at 37° C., for 24 hours. After the culture, the cells were washed with PBS, 0.1 ml and 25 μM of an H2DCFDA solution was added, and incubation was performed for 45 minutes. Afterwards, the cells were washed with PBS, and as the amount of active oxygen produced in the cells, fluorescence intensity was measured using a fluorescence measurement plate reader at a wavelength Ex/Em=485/535 nm.
The PC-3 and DU-145 cells (2.5×10^4/0.1 ml of a culture fluid per hole using a 96-hole plate) were cultured under 5% of CO2, at 37° C., for 24 hours in a DMEM culture fluid (containing 10% of FBS, 1% of P/S, and 1% of fungizone) containing the DHMBA (0.1, 1, 10, 100, or 1000 μM). […] After the cells were washed with PBS, a fluorescence intensity of the cells was measured using a fluorescence measurement plate reader at a wavelength Ex/Em=485/535 nm. […]

[3] = test system: PC-3 cells; test: Colony formation of PC-3 cells; conditions: DHMBA 1 or 10 μM, nine days
Protocol: The PC-3 and DU-145 cells (1×10^3/in 2 ml of a culture fluid per hole using a six-hole plate) were cultured in a DMEM culture fluid (containing 10% of FBS, 1% of P/S, and 1% of fungizone) containing the DHMBA (1 and 10 μM) under 5% of CO2, at 37° C., for nine days. After the culture, the culture fluid was removed, the cells were washed twice with PBS, 95% of methanol (0.5 ml) was added, and the cells were fixed for 20 minutes. After the fixation, each well of a culture dish was washed four times with PBS (1 ml), and after that 0.5% of crystal violet (0.5 ml) was added, and the product was left for two hours at room temperature for staining. After the stain solution was washed to be removed, drying was performed, and after that colonies containing 50 or more cells were counted by a microscope (Olympus MTV-3, Olympus Corporation, Tokyo, Japan).
FIG. 1(A) is a drawing in which the PC-3 cells (the cell number of 1×10^3/per well of a six-well plate) were cultured under 5% of CO2, at 37° C., for nine days in a DMEM culture fluid (containing 10% of FBS, 1% of P/S, and 1% of fungizone) containing the DHMBA (1 or 10 μM).
FIG. 1(B) is a diagram of counting the number of colonies.

With `COc1c(O)cc(CO)cc1O` [DHMBA, 3,5-dihydroxy-4-methoxybenzyl alcohol] the “effect on cell growth at low concentration” value ([1]; DHMBA 0.01 μM) was “significant effect”, the “cell growth inhibitory effect of DHMBA in the presence of CH223191” value ([1]; DHMBA 10 μM with CH223191 1, 10, or 25 μM, three days) was “found not to be expressed” and the “cell growth inhibitory effect of DHMBA in the presence of cell cycle inhibitors” value ([1]; DHMBA 10 μM with roscovitine, butyrate or sulforaphane, three days) was “not observed”. For the same compound, the “cell growth inhibitory effect of DHMBA in the presence of signaling inhibitors” value ([1]; DHMBA 10 μM with wortmannin, PD98059 or staurosporine, three days) was “no significant cell growth inhibitory effect”, the cell growth ([1]; DHMBA 10 μM, one to six days) was “inhibited” and the “amount of intracellular active oxygen production” value [2] was “significant inhibition”. For the same compound, the colony formation [3] was “significantly inhibited”.
